Data as given in patent US8877158B2, “Targeting agent to newly formed blood vessels” (FUJIFILM Corporation, priority 2009, dated 2014).

What was measured:
αVβ3 integrin = target: T1, αVβ3 integrin (Homo sapiens, UniProt P05106+P06756); experiment: Inhibition of αVβ3-integrin-mediated HUVEC adhesion by anti-αV antibody; type: cell-based; conditions: coating 0.2 μg/well; antibody-treated vs untreated HUVECs
T1 construct: many αVβ3 integrin molecules are permanently expressed on the surfaces of HUVECs; host or cells: HUVEC (normal human umbilical vein endothelial cells)
T1 sequence (P06756 31-889 limits assumed): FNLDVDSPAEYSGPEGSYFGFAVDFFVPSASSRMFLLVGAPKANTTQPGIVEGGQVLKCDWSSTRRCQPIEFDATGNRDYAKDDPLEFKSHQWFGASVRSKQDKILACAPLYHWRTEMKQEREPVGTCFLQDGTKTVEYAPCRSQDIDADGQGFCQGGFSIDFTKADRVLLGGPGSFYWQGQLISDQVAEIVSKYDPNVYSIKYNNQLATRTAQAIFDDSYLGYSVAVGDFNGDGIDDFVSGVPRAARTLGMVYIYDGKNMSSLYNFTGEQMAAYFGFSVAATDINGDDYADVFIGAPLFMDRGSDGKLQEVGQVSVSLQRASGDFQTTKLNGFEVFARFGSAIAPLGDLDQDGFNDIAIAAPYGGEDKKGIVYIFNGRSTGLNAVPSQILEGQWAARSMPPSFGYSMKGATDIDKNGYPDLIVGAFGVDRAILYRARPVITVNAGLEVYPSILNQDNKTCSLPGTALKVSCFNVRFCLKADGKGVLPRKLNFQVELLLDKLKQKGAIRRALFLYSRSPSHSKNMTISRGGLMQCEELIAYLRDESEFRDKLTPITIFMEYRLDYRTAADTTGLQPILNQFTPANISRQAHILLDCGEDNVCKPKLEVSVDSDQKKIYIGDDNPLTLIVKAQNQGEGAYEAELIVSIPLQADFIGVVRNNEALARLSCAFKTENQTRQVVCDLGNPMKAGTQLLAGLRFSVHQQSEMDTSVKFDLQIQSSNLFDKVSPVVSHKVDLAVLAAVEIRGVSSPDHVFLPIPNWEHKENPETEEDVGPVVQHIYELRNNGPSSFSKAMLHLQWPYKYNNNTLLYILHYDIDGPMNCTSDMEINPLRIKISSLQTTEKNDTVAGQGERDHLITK
T1 sequence (P06756 891-1048 partner limits assumed): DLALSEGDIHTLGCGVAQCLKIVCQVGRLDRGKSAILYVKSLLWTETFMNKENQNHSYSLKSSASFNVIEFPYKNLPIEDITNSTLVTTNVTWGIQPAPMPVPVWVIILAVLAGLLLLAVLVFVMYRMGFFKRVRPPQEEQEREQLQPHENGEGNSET
T1 sequence (P05106 27-788): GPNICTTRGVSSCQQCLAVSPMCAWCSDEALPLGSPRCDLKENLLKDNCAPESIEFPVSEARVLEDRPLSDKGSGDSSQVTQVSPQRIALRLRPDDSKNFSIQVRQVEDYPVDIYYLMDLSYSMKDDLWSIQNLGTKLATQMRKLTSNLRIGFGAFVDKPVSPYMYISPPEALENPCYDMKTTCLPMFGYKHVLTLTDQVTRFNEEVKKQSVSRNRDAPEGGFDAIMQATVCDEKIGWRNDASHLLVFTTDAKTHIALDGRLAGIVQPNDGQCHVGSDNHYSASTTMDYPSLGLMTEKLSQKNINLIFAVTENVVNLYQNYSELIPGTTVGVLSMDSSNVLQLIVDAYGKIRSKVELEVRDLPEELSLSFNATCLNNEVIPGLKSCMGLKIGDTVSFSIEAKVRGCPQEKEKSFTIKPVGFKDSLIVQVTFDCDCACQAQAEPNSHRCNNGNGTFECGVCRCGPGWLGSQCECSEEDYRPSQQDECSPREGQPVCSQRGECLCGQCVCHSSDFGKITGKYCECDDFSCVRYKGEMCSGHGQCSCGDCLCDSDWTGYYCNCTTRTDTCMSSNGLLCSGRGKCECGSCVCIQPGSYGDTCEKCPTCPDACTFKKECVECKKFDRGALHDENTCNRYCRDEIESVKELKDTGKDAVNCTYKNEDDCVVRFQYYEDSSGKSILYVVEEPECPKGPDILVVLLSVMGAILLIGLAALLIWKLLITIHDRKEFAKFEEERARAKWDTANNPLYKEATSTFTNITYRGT
Procedure: In order to identify binding between R-Gel and HUVECs as αVβ3-integrin-mediated binding, experimentation was conducted to determine whether or not R-Gel-to-cell adhesion would be inhibited by blocking αVβ3 integrin with an anti-αV antibody in the R-Gel-to-cell adhesiveness tests conducted in (7) above.
Specifically, cell adhesion experiments were conducted as described in (7) above. Experiments were conducted using the R-Gel-coated plate and the fibronectin-coated plate at a coating concentration of 0.2 μg/well. The prepared HUVECs were incubated with anti-human αV monoclonal antibodies (MAB1980: CHEMICON) at a sufficient concentration at 37° C. for 30 minutes, and they are described as “antibody-treated HUVECs”. On the other hand, the prepared HUVECs were incubated with the addition of the same amount of PBS at 37° C. for 30 minutes, and they are described as ““untreated HUVECs”. Cells were inoculated on plates with addition of a solution (100 μL/well) prepared in a manner such that it contained antibody-treated HUVECs or untreated HUVECs at a concentration of 1,000,000 cells/mL. The time for cell adhesion was determined to be 1 hour at 37° C. as in the case of (7) above. Quantitative determination of the number of cells was carried out by DNA assay as in the case of (7) above.

HUVECs = experiment: HUVEC cell adhesiveness test on protein-coated plates (DNA assay, 1-cell area); type: cell-based, human
From the text: HUVECs (normal human umbilical vein endothelial cells; Takara Bio Inc.) were used as vascular endothelial cells. It is known that many αVβ3 integrin molecules are permanently expressed on the surfaces of HUVECs. By testing cell adhesiveness of R-Gel to HUVECs, binding of R-Gel to vascular endothelial cells activated by newly formed blood vessels can be elucidated. Also, binding of R-Gel to αVβ3 integrin that has been reported to be highly expressed at newly formed blood vessel sites can be elucidated.
For culture of HUVECs, endothelial cell basic medium-2 (containing no serum) (EBM™-2) and endothelial cell medium kit-2 (2% FBS) (EGM™-2 BulletKit™) were used (Takara Bio Inc.). Upon subculture and removal of cells, an EDTA-containing 0.25% trypsin solution was used. HUVECs that had been allowed to proliferate to a sufficient amount in a T-75 flask were removed from the bottom surface of the flask, followed by centrifugation for removal of the supernatant. Then, the resultant was washed with the above endothelial cell basic medium-2 containing the endothelial cell medium kit 2. Centrifugation was performed again to remove the supernatant. […] The number of living cells was counted using cell counter. […]
DNA assay was performed for quantitative determination of the number of cells on the obtained plates. […]

[1] = in vivo, 24 h; cited from earlier work
neovascular site = experiment: Inhibition of accumulation of R-Gel in neovascular site by previous administration of cyclo-RGDfK; type: in vivo, mouse; conditions: for fluorescence intensity in the neovascular site: average±S.D.
Procedure: In order to evaluate whether accumulation of R-Gel in neovascular site is targeting caused by the same mechanism as that of circular RGD peptide cyclo-RGDfK, whether accumulation of R-Gel would be inhibited by previously administering a large amount of cyclo-RGDfK was examined. Unlabeled cyclo-RGDfK was dissolved in a concentration of 1 mg/ml in ultrapure water, and thereafter, 100 μL of the obtained solution was administered to a mouse via caudal vein administration. Thirty minutes later, 100 μL of Cy7-R-Gel was administered thereto via caudal vein administration. As a control, instead of cyclo-RGDfK, 100 μL of PBS (phosphate buffer) was administered to a mouse via caudal vein administration, and thirty minutes later, 100 μL of Cy7-R-Gel was administered thereto via caudal vein administration. After completion of the administration, fluorescence intensity in the neovascular site was measured over time. When the fluorescence intensity was measured 1 hour after the administration, the fluorescence intensity in the PBS administration group was 98063583±1200251 (average±S.D.), whereas the fluorescence intensity in the cyclo-RGDfK administration group was 81431011±1373625 (average±S.D.). […] Likewise, in the measurement 3 hours after the administration, the fluorescence intensity in the PBS administration group was 88124139±3438695 (average±S.D.), whereas the fluorescence intensity in the cyclo-RGDfK administration group was 60269975±1267782 (average±S.D.). In the measurement 24 hours after the administration, the fluorescence intensity in the PBS administration group was 22196881±2549892 (average±S.D.), whereas the fluorescence intensity in the cyclo-RGDfK administration group was 12763810±1927458 (average±S.D.).

[2] = system: tumor site and tumoral neovascular site; experiment: Imaging of tumor site and tumoral neovascular site of cancer-bearing animal (Colon-26 homograft); type: in vivo, BALB/c mouse; conditions: cyclo-RGDfK administered 30 minutes before Cy7-R-Gel
Procedure: As a tumor-bearing animal model, a cancer-bearing animal was produced. As an animal, BALB/c mouse (female, 6-week-old; Japan SLC, Inc.) was used. Tumor was produced using a cancer cell homograft model. As cancer cells, Colon-26 (which were cells derived from BALB/c mouse colon cancer) was used, and these cells were cultured in large scale in an RPMI1640 medium containing 10% fetal bovine serum. For the culture, a T-225 flask was used. Using EDTA-containing 0.25% trypsin, the growing cancer cells were removed from the bottom of the flask, and a culture supernatant was then removed by centrifugation. Thereafter, the solution was replaced with PBS (phosphate buffer), and the cell concentration was then counted using a cell counter. […]
200 μL of the Cy7-R-Gel or Cy7-animal gelatin produced in (6) above was administered to the cancer-bearing animal produced in (9) above via caudal vein administration, and a fluorescence imaging experiment was then carried out from the outside of the body of the animal.
For detection of a fluorescence signal, measurement, and imaging, Lumino image analyzer LAS5000 (a trial product of Fujifilm Corporation) was used. A visible light image and a fluorescence image were simultaneously taken, and the two images were then overlapped to identify a site from which fluorescence was emitted. […]

## R-Gel: recombinant gelatin CBE3, SEQ ID NO: 1, GAP[(GXY)63]3G, 571 amino acids, 12 RGD sequences
αVβ3 integrin
  adhesion to HUVECs treated with anti-human αV monoclonal antibody (MAB1980): significantly inhibited
HUVECs; coated plates 0.02-2.0 μg/well, 1 hour at 37° C.
  adhesion to HUVECs (number of cells by DNA assay): superior to fibronectin, Fibrogen, PSK, and G1917P
HUVECs; from photos, ImageJ
  1-cell area of HUVEC adhering to coated plate: significantly superior to Fibrogen, PSK, and G1917P

## cyclic-RGDyK
[1]
  amount of the circular RGD peptide remaining in the body: ≤ 15%

## cyclo-RGDfK
Neovascular site; Cy7-R-Gel 30 min after cyclo-RGDfK (1 mg/ml, 100 μL) pre-administration, 1 hour after the administration
  fluorescence intensity in the neovascular site: 81431011±1373625
Neovascular site; Cy7-R-Gel 30 min after cyclo-RGDfK pre-administration, 3 hours after the administration
  fluorescence intensity in the neovascular site: 60269975±1267782
Neovascular site; Cy7-R-Gel 30 min after cyclo-RGDfK pre-administration, 24 hours after the administration
  fluorescence intensity in the neovascular site: 12763810±1927458
Neovascular site; large amount of cyclo-RGDfK administered 30 min before Cy7-R-Gel
  effect of previous administration of cyclo-RGDfK on accumulation of R-Gel in blood vessels: inhibits the effect of R-Gel to accumulate in blood vessels
[2]
  accumulation of R-Gel in the tumoral neovascular site and the tumor site after previous cyclo-RGDfK: decreased

## fibronectin
αVβ3 integrin
  adhesion to HUVECs treated with anti-human αV monoclonal antibody (MAB1980): significantly inhibited
